Results as given in patent US20070009575A1, “Novel use of antisecretory factor” (priority 2003, published 2007).

Test system: freeze-injured brain tissue
Type: in vivo, rat
Details: 6 days after freezing injury
Excerpt: The rats were anaesthetized by the inhalation of isofluorane, and had their heads shaved. The skin was cut open in the mid sagittal plane on the skull. The calvarium was exposed on the left side between the bregma and the lambda. The periostium was detached from the bone, which then was rinsed. Thereafter, great care was taken to remove blood and any fluid from the calvarium as that may impair the subsequent procedure. A probe made of brass, having a cylindric 4 mm long end piece with a diameter of 3 mm, was cooled by immersion in a standardized manner in liquid nitrogen. The cooled probe was thereafter applied for 40 s on the calvarium in between the lambda and bregma, 4 mm lateral to the sagittal mid line. The probe was then removed and the skin wound sutured. The application of the freezing probe resulted transiently in that the brain tissue underlying the exposure site turn frozen. It ought to be stressed that the skull was not opened and no fractures or other signs of gross damage induced. The animals moved afterwards without any obvious problems, behaved normally and ingested food and drinking fluid close to as those untreated, after having recovered from the anaesthesia. Rats (body weight 180-350 g at the start of the experiments), male and female, were supplied with standard pelleted food and tap water prior to and after the brain injury. At the day of injury, the rat were anaesthetized and prepared as described in experiment 2. The freezing probe was applied once for 40 seconds. After suturing the skin wound in the skull and recovered from the anaesthesia, the rats were allowed to move freely. All rats received twice daily for 5 days, starting on the day of surgery, an intravenous injection of 1-10 μg per kg body weight of a synthetic peptide, being a fragment of AF, comprising amino acids 36-51, i.e. composed of 16 amino acids. It was dissolved in saline and prepared freshly prior to each injection. There was no intravenous injection of the peptide on the day of sacrifice, day 6. […] Six days after the freezing injury, the rats were sacrificed and fixed by perfusion as described. […] There were no bleedings in or on the brain. […] The penumbra appeared to be affected by minor oedema. […] Irregularly distributed swellings and beadings of axons and dendrites were sparse. […] There was, however, a variation in the extent of the neuroprotection exerted by the injected peptide.

[1] = peptide i.v. 1-10 μg per kg twice daily for 5 days
[2] = peptide i.v. twice daily for 5 days, vs rats of experiment 2

Substance: fragment of AF, comprising amino acids 36-51: synthetic peptide, being a fragment of AF, comprising amino acids 36-51, i.e. composed of 16 amino acids (VCHSKTRSNPENNVGL; listed as Homo sapiens)
- bleedings in or on the brain [1]: no bleedings
- oedema in the penumbra [1]: minor oedema
- shallow depression of the central parts of the injured area [1]: not marked and in some cases difficult to identify for certain
- extent of brain injury on opening the skull bone (peptide i.v. 1-10 μg per kg twice daily for 5 days, vs standard pellets and tap water only): less extensive brain injury
- irregularly distributed swellings and beadings of axons and dendrites (peptide i.v. twice daily for 5 days): sparse
- proliferation of neural stem and progenitor cells in the SGZ (peptide i.v. twice daily for 5 days, hippocampus): increased proliferation
- occurrence of damaged cells (light microscopy of stained sections) [2]: less extensive occurrence of damaged cells
- residing extravasation of blood (light microscopy) [2]: rarely any residing extravasation of blood
- astrogliosis in the penumbra region (peptide i.v. twice daily for 5 days, vs standard pellets and tap water only): not as extensive and wide-spread
